# What was measured:
# [1] = biological target: T1, 5-hydroxytryptamine receptor 1D (Homo sapiens, UniProt P28221); test: Maximum stimulation of [35S]GTP gamma-S binding expressed relative to the maximal effect produced by 5-hydroxytryptamine 1D receptor; assay type: functional
# [2] = biological target: T1, 5-hydroxytryptamine receptor 1D; test: Measurement of agonist-induced [35S]-GTP gamma-S binding in CHO cells stably transfected with 5-hydroxytryptamine 1D receptor; assay type: functional, cell-based
# [3] = biological target: T1, 5-hydroxytryptamine receptor 1D; test: Ability to displace [3H]-5-HT from recombinant human 5-hydroxytryptamine 1D receptor stably expressed in CHO cells determined in vitro; assay type: cell-based
# [4] = biological target: Serotonin 1 receptors; 5-HT1B & 5-HT1D (Homo sapiens) (UniProt P28222+P28221); test: Binding selectivity for h5-HT1D receptor to that of h5-HT1B receptor; assay type: protein assay
# [5] = biological target: 5-hydroxytryptamine receptor 1B (Homo sapiens, UniProt P28222); test: Ability to displace [3H]5-HT from recombinant human 5-hydroxytryptamine 1B receptor stably expressed in CHO cells determined in vitro; assay type: cell-based
# 5-hydroxytryptamine receptor 1B, sequence (P28222 whole entry): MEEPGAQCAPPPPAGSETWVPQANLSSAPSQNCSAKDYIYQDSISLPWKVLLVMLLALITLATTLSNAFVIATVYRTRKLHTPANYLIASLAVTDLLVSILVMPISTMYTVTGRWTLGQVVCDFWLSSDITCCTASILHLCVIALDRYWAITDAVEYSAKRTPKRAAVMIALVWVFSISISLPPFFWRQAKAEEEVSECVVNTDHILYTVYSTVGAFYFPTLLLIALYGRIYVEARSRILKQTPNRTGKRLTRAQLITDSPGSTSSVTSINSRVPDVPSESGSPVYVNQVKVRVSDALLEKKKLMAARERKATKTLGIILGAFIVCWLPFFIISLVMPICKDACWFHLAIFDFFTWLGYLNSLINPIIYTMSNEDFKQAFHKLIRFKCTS
# T1 sequence (P28221 whole entry): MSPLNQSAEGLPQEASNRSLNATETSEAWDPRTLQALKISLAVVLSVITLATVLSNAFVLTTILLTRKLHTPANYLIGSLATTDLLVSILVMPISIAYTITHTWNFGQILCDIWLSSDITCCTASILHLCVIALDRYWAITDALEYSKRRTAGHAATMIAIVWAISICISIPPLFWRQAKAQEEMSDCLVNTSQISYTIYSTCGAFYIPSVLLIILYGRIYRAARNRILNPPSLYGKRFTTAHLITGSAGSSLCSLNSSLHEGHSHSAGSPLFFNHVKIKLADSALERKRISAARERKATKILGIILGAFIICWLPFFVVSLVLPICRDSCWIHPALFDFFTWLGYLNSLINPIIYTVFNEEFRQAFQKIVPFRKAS
Activity [1] [%],ED50 [2] [nM],IC50 [3] [nM],Ratio [4],IC50 [5] [nM],Compound
102,14,11,3,30,CC(=O)Nc1ccc(CNCC2(O)CCN(CCCc3c[nH]c4ccc(-n5cnnc5)cc34)CC2)cc1
86,9.7,21,16,340,CC(C)(C)OC(=O)NCC1(O)CCN(CCCc2c[nH]c3ccc(-n4cnnc4)cc23)CC1
79,2.2,0.45,106,47,OC1(CNCc2ccccc2)CCN(CCCc2c[nH]c3ccc(-n4cnnc4)cc23)CC1
,,4.5,13,57,OC1(CNCC2CC2)CCN(CCCc2c[nH]c3ccc(-n4cnnc4)cc23)CC1
,,7.3,12,85,CC(C)(C)CNCC1(O)CCN(CCCc2c[nH]c3ccc(-n4cnnc4)cc23)CC1
96,3.2,3.2,17,55,OC1(CNCc2ccccn2)CCN(CCCc2c[nH]c3ccc(-n4cnnc4)cc23)CC1
91,3.8,1.2,80,96,CN(Cc1ccccc1)CC1(O)CCN(CCCc2c[nH]c3ccc(-n4cnnc4)cc23)CC1
90,3.7,1.3,68,89,Cc1ccccc1CN(C)CC1(O)CCN(CCCc2c[nH]c3ccc(-n4cnnc4)cc23)CC1
79,1.1,1.35,20,27,CN(CC1CC1)CC1(O)CCN(CCCc2c[nH]c3ccc(-n4cnnc4)cc23)CC1
69,1.4,1.2,22,27,CN(CC1CCCCC1)CC1(O)CCN(CCCc2c[nH]c3ccc(-n4cnnc4)cc23)CC1
60,1.6,1.8,34,61,CN(CC(C)(C)C)CC1(O)CCN(CCCc2c[nH]c3ccc(-n4cnnc4)cc23)CC1
67,0.9,0.65,29,19,CC1(C)CCCN(CC2(O)CCN(CCCc3c[nH]c4ccc(-n5cnnc5)cc34)CC2)C1
,,4,21,83,Cc1ccccc1CNCC1(O)CCN(CCCc2c[nH]c3ccc(-n4cnnc4)cc23)CC1
64,0.25,0.1,251,32,OC1(Cc2ccccc2)CCN(CCCc2c[nH]c3ccc(-n4cnnc4)cc23)CC1
95,1.7,0.65,47,30,CC(C)CN(C)CC1(O)CCN(CCCc2c[nH]c3ccc(-n4cnnc4)cc23)CC1
